How the values were obtained:
Experiment in all cases: relative viability (nuclei count vs DMSO), 5 days (fraction); higher = more cells survive
Selisistat + AZD7762 = compound: C1CC(C2=C(C1)C3=C(N2)C=CC(=C3)Cl)C(=O)N [Selisistat] + NC(=O)Nc1cc(-c2cccc(F)c2)sc1C(=O)N[C@H]1CCCNC1 [AZD7762] (partner 0.2 µM)
Summary of the method: (§1)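 Relative viability divides the nuclei count in treated wells by that in vehicle wells. Lung cancer cell lines were seeded in 1536-well plates, dosed by pin tool the next day, and fixed and stained after 5 days in one step with final 0.05% Triton X-100, 1% formaldehyde and 1 ug/ml Hoechst. Dosing was a single drug or a fixed anchor-drug dose plus five library-drug doses (not always all listed) in √10 steps, and values are medians of duplicate plates imaged at 4×.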

Selisistat + Luminespib = compound: C1CC(C2=C(C1)C3=C(N2)C=CC(=C3)Cl)C(=O)N [Selisistat] + CCNC(=O)c1noc(-c2cc(C(C)C)c(O)cc2O)c1-c1ccc(CN2CCOCC2)cc1 [Luminespib] (partner 0.01 µM)
Summary of the method: as §1

Serdemetan + Palbociclib = compound: c1ccc2c(CCNc3ccc(Nc4ccncc4)cc3)c[nH]c2c1 [Serdemetan] + CC(=O)c1c(C)c2cnc(Nc3ccc(N4CCNCC4)cn3)nc2n(C2CCCC2)c1=O [Palbociclib] (partner 0.5 µM)
Summary of the method: as §1

Selisistat + Palbociclib = compound: C1CC(C2=C(C1)C3=C(N2)C=CC(=C3)Cl)C(=O)N [Selisistat] + CC(=O)c1c(C)c2cnc(Nc3ccc(N4CCNCC4)cn3)nc2n(C2CCCC2)c1=O [Palbociclib] (partner 0.5 µM)
Summary of the method: as §1

Cell Line	relative viability (Selisistat + AZD7762; first compound 0.4 µM)	relative viability (Selisistat + AZD7762; first compound 1.265 µM)	relative viability (Selisistat + AZD7762; first compound 4 µM)	relative viability (Selisistat + AZD7762; first compound 12.65 µM)	relative viability (Selisistat + AZD7762; first compound 40 µM)	relative viability (Selisistat + Luminespib; first compound 0.4 µM)	relative viability (Selisistat + Luminespib; first compound 1.265 µM)	relative viability (Selisistat + Luminespib; first compound 4 µM)	relative viability (Selisistat + Luminespib; first compound 12.65 µM)	relative viability (Selisistat + Luminespib; first compound 40 µM)	relative viability (Serdemetan + Palbociclib; first compound 0.04 µM)	relative viability (Serdemetan + Palbociclib; first compound 0.1265 µM)	relative viability (Serdemetan + Palbociclib; first compound 0.4 µM)	relative viability (Serdemetan + Palbociclib; first compound 1.265 µM)	relative viability (Serdemetan + Palbociclib; first compound 4 µM)	relative viability (Selisistat + Palbociclib; first compound 0.4 µM)	relative viability (Selisistat + Palbociclib; first compound 1.265 µM)	relative viability (Selisistat + Palbociclib; first compound 4 µM)	relative viability (Selisistat + Palbociclib; first compound 12.65 µM)	relative viability (Selisistat + Palbociclib; first compound 40 µM)
RERF-LC-KJ	0.932	0.765	0.823	0.898	0.877	1.24	1.02	1.27	1.09	0.956	1.06	0.962	0.975	1.04	0.824	1.15	1.02	0.995	0.909	0.952
NCI-H23	0.297	0.193		0.31	0.169	0.188	0.203		0.204	0.197	0.474	0.472	0.461		0.437	0.57	0.51		0.538	0.441
EMC-BAC-2	1.08	1.11	1.07	0.661	0.598	1.12	1.07	1.14	1.17	1.08	0.508	0.523	0.493	0.479	0.463	0.523	0.525	0.586	0.282	0.319
NCI-H2405	0.718	0.732		0.725	0.678	0.745	0.691	0.556	0.659	0.766	0.479	0.515	0.549	0.466	0.52	0.534	0.536		0.578	0.502
NCI-H358	0.532	0.589		0.518	0.639	0.435	0.341		0.469	0.471	0.134	0.135	0.132	0.122	0.117	0.137	0.128	0.128	0.192	0.149
NCI-H1944	0.523	0.509	0.428	0.653	0.586	0.743	0.58		0.653	0.615	0.364	0.355	0.31	0.253	0.221	0.351	0.285	0.276	0.326	0.351
NCI-H2342	0.494	0.483	0.41	0.611	0.505	0.725	0.668	0.625	0.923	0.742	0.528	0.494	0.508	0.481	0.489	0.554	0.753	0.46	0.538	0.611
EPLC-272H	0.236	0.215		0.318	0.336	0.213	0.409		0.32	0.197	0.337	0.329	0.33	0.256	0.3	0.343	0.323		0.334	0.368
NCI-H1915	0.668	0.687	0.775	0.674	0.757	0.839	0.775	0.775	0.695	0.75	0.483	0.52	0.482	0.434	0.39	0.612	0.515	0.466	0.554	0.587

— the supplement of paper PMC10307832
